Results from patent publication US20250152577A1, “Pharmaceutical Composition of Ethidium Bromide and Use in Treating Cancer” (RUIJIN HOSPITAL, SHANGHAI JIAOTONG UNIVERSITY SCHOOL OF …, priority 2022, published 2025).

Assays:
[1] = test system: N2A Neuroglioma; test: Median lethal dosage (IC50) against tumor cell lines; format: cell-based; settings: N2A neuroglioma tumor cells
[2] = test system: Sk-Hep1 Liver cancer; test: as above; format: cell-based; settings: Homo sapiens; Sk-Hep1 liver cancer tumor cells
[3] = test system: Nalm-6 Leukemia; test: as above; format: cell-based; settings: Homo sapiens; Nalm-6 leukemia tumor cells
[4] = test system: MEF; test: Median lethal dosage (IC50) against normal cell lines; format: cell-based; settings: Mus musculus; MEF normal cells
[5] = test system: AOM+DSS-induced colorectal tumor; test: AOM+DSS-induced spontaneous colorectal cancer mouse model; format: in vivo, mice
Method: The classical intraperitoneal injection of AOM and the spontaneous colorectal cancer formation by three rounds of DSS were utilized to construct a tumor mouse model. Mice were treated with ethidium bromide (500 mg/L dissolved in drinking water) one week after completion of the construction. […] Mice were sacrificed and their colorectum was taken for photographic observation and fixed staining.
To further verify the above results, we then expanded the sample size to about 10-16 mice per group and still used the above AOM+DSS protocol to induce spontaneous colorectal cancer formation in mice. […] Meanwhile, since it has been reported that zalcitabine (ddC) can effectively impair the function of mitochondria (mainly the replication of mtDNA, similar to ethidium bromide), we added the experimental group of zalcitabine (33 mg/Kg) as a control.
In addition, in order to investigate in what way ethidium bromide clears tumors in mice, we also tested cell proliferation (FIGS. 8A and B) and apoptosis (FIG. 8C-F) in tumor tissues and normal tissues surrounding the tumors in different treatment groups. Among them, cell proliferation was detected by immunohistochemistry of Ki67-positive cells, and apoptosis was detected by immunofluorescence staining of cleaved Caspase3.
To further verify whether ethidium bromide is still effective against already existing larger tumors (advanced colorectal cancer), we set aside a group of control mice (started administration 5 weeks after the end of induction, equivalent to the control group of mice described above) to administer them by gavage (20 mg/Kg per day).
We investigated the mechanism of ethidium bromide-induced apoptosis in tumor cells. First, tumor tissues treated with ethidium bromide (mice shown in FIGS. 7 and 8, treated for 4 weeks at 20 mg/Kg per day) were subjected to SDS-Loading buffer boiling lysis and tested for associated signaling pathways by Western blotting.

[6] = Toxicity of ethidium bromide: routine blood, liver and kidney functions; format: in vivo, nude mice; settings: after 4 weeks of intravenous administration
Excerpt: Finally, we also conducted a preliminary study on the toxicity of ethidium bromide by collecting whole blood and serum from the control and the dosing groups (administered intravenously for about 1 month) and tested their routine blood, and liver and kidney functions, respectively.

[7] = test system: mouse melanoma cells B16; test: Subcutaneous B16 melanoma in C57 mice, intraperitoneal administration; format: in vivo; settings: intraperitoneal 10 mg/Kg
Method: In order to further test whether ethidium bromide still has strong anti-tumor activity against solid tumors in vivo, C57 mice were first injected subcutaneously with 2×10^6 mouse melanoma cells B16, and the administration was initiated after about 10 days when the subcutaneous tumor volume of the mice reached about 30 mm^3. We first treated the mice by traditional intraperitoneal administration (10 mg/Kg). […] So after 3 days, we switched to injecting every other day. […] Although the tumors of the mice in the dosing group were slightly smaller than those in the control group, the tumor suppression effect was not obvious (FIG. 18C).

[8] = test system: colorectal cancer cells RKO; test: Subcutaneous RKO solid tumor in nude mice, gavage administration; format: in vivo; settings: gavage 20 mg/Kg
Method: We also tested the anti-tumor activity of ethidium bromide against subcutaneous solid tumors. 2×10^6 colorectal cancer cells RKO were injected subcutaneously. About 1 week later, when solid tumors grew subcutaneously in nude mice, gavage administration (20 mg/Kg) was started. The size of the tumors was measured twice a week.

[9] = test system: tumor tissue blocks (PDX) from patients with colorectal cancer; test: Subcutaneous patient colorectal cancer graft (PDX) in nude mice; format: in vivo
[10] = gavage 20 mg/Kg once daily, one month

In the case of `CC[n+]1c(-c2ccccc2)c2cc(N)ccc2c2ccc(N)cc21` [ethidium bromide, Ethidium bromide], the IC50 [1] is reported as 15.7 µM, the IC50 [2] is reported as 1.26 µM and the IC50 [3] is reported as 1.17 µM. For the same compound, the IC50 [4] was 38.5 µM, the colorectal tumor mass ([5]; 500 mg/L in drinking water, start one week after model construction, 2 months) was “almost complete disappearance of the tumor mass” and the “cleaved Caspase3, phosphorylation of Erk, LC3 level in tumor tissues (Western blotting)” value ([5]; 4 weeks at 20 mg/Kg per day) was “significant increase in cleaved Caspase3”. The body weight [5, 10] was “little changed”, the “mice with complete disappearance of spontaneous colorectal tumors” value [5, 10] was “more than 80%” and the “mtDNA copy number of colorectal tumors” value [5, 10] was “did not alter the mitochondrial mtDNA copy number”. The “size of the spleen, length of colorectum, weight of tissue organs vs control” value [5, 10] was “healthier”, the “mice achieving complete tumor clearance” value ([5]; larger (advanced) tumors, start 5 weeks after end of induction, gavage 20 mg/Kg per day, 1 month) was “more than 40%” and the “Caspase3-positive tumor cells (apoptotic cells, immunofluorescence)” value ([5]; vs other groups and surrounding normal tissues) was “significantly higher”. For the same compound, the “proliferation of tumor cells (Ki67-positive, immunohistochemistry)” value ([5]; vs other treatment groups) was “significantly lower”, the “liver or kidney function vs control” value ([6]; serum) was “no significant difference in liver or kidney function” and the “blood routine data (hemoglobin, platelets, leukocytes)” value ([6]; whole blood) was “very normal”. For the same compound, the tumor suppression effect [7] was “not obvious”, the body weight ([7]; after 3 days of continuous injection) was “lose weight significantly” and the “survival of mice by the end of the experiment” value ([7]; daily 3 days then every other day) was “only 1 of the 19 mice survived”. The “viability of nude mice” value [8] was “contributed to improve the viability of nude mice”, the “inhibitory effect on subcutaneous solid tumors” value ([8]; start about 1 week after cell injection) was “very unsatisfactory” and the subcutaneous tumor mass ([9]; 20 mg/Kg in PBS injected directly into the tumor, once a day, three injections) was “rapidly necrotic and eventually died and fell off”. For the same compound, the anti-tumor effect ([9]; intravenously administered) was “very limited”.
